The assay addresses FFA1-Nluc (Homo sapiens, UniProt O14842). Put plainly: DISCo-BRET (endpoint, spectra scan, kinetics) with TUG-2591 and TUG-2597 at C terminal Nluc tagged FFA1. Format: binding. Also on record: expressed in transfected cells. As to conditions: for pIC50 DISCo-BRET SulfoCy5/NBD: one site model. On the procedure: Nluc-FFA1 or FFA1-Nluc Flp-In T-REx 293 cells were plated at 50,000 cells per well in poly-D-lysine coated white 96-well plates. Cells were cultured for 24 h in the plate before medium was replaced with medium containing 100 ng/mL of doxycycline to induce receptor expression. After culturing for a further 24 h, culture medium was removed, cells washed with HBSS and incubated in HBSS for 30 min. For all DISCo-BRET formats Nano-Glo substrate was then added at a 1:800 final dilution and cells incubated for 10 min. Following substrate addition experimental set up different among the three formats: endpoint, spectra scan, and kinetics.
For endpoint experiments all fluorescent and unlabelled ligands were added to the cells and incubated for 5 min at 37 °C. Luminescent emission was then measured using a CLARIOstar microplate reader with monochromator set at 450–60 nm (Nluc), 540−60 nm (NBD) and 690–100 nm (SulfoCy5). BRET ratios were then calculated as either SulfoCy5 emission divided by NBD emission, SulfoCy5 emission divided by Nluc emission, or NBD emission divided by Nluc emission.
For spectra scan experiments all indicated fluorescent and unlabelled ligands were added to the cells and cells incubated for 5 min at 37 °C. Luminescence emissions were then measured from each well of the plate from 440 nm – 740 nm with a 5 nm resolution using a CLARIOstar microplate. Luminescent emission spectra were then normalised as a percentage of the maximal Nluc emission peak ( ~ 460 nm), then subtracted with the spectrum obtained in the presence of high concentrations of ligands competing for both binding sites to obtain specific BRET binding spectra.
In kinetic DISCo-BRET experiments plates were placed directly in a CLARIOstar plate reader set to 25 °C 10 min after Nano-Glo substrate addition. Luminescent measurements were then taken with three sequential measurements per well with the monochromator set to 450–60 nm (Nluc), 540 - 60 nm (NBD) and 690–100 nm (SulfoCy5) taken in 20 or 30 s intervals. After 5 min of background measurements, the plate reader was paused for the first indicated fluorescent ligand(s) addition, before immediately returning the plate to the reader to continue luminescence readings. After 5 min, the reader was again paused to add the second fluorescent ligand (association assays) or competing ligand(s) (dissociation assays), before immediately continuing the measurements for the indicated time. Non-specific control binding was obtained by adding the indicated competing ligand(s) 5 min prior to the addition of the first fluorescent ligand.

The mark [1] stands for this setting: 100 nM TUG-2591 and […] TUG-2597, NC = No competition.

Values joined by “and” are separate entries in the source; they are usually repeats but may differ in a detail not shown here. Equal entries are not always repeated.

Consider two compounds from paper PMC12254266, “Multicolored sequential resonance energy transfer for detection of simultaneous ligand binding at G protein-coupled receptors” (Nature Communications, 2025).

Chain of FFA1-Nluc (O14842 whole entry): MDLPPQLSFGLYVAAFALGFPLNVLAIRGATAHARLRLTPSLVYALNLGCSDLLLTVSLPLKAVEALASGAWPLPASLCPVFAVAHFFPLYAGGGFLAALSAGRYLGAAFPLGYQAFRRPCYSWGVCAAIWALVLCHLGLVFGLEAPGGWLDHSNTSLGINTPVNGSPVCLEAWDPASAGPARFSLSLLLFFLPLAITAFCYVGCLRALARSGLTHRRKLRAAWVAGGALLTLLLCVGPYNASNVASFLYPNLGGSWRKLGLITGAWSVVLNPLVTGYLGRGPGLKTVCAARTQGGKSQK

Turning to `CCCN1C(=O)c2ccccc2[C@@H](C(=O)O)[C@@H]1c1ccc(OCc2cccc(-c3ccc(OCCOCCNC(=O)OC(C)(C)C)cc3C)c2)cc1` (racemic) [TUG-2744], the “pIC50 DISCo-BRET SulfoCy5/NBD” value under setting [1] is given as 6.2±0.07. Further, the “Specific BRET (690/540), % of control” value runs as follows: (log[Ligand] -5, Figure 4Aiii, single replicate values (technical duplicate)) 39.83 % of control and 31.90 % of control and 49.72 % of control and 41.62 % of control and 42.27 % of control and 54.60 % of control and 24.29 % of control and 24.93 % of control; (log[Ligand] -5.5, Figure 4Aiii, single replicate values (technical duplicate)) 37.03 % of control and 28.64 % of control and 34.65 % of control and 33.07 % of control and 31.01 % of control and 33.80 % of control and 21.95 % of control and 22.19 % of control; (log[Ligand] -6, Figure 4Aiii, single replicate values (technical duplicate)) 54.48 % of control and 58.02 % of control and 68.62 % of control and 58.61 % of control and 60.18 % of control and 39.48 % of control and 47.55 % of control and 54.64 % of control; (log[Ligand] -6.5, Figure 4Aiii, single replicate values (technical duplicate)) 81.72 % of control and 80.69 % of control and 83.13 % of control and 96.40 % of control and 81.56 % of control and 79.15 % of control and 75.55 % of control and 78.81 % of control; (log[Ligand] -7, Figure 4Aiii, single replicate values (technical duplicate)) 91.79 % of control and 92.91 % of control and 97.64 % of control and 109.79 % of control and 98.51 % of control and 104.19 % of control and 93.40 % of control and 97.61 % of control; (log[Ligand] -8, Figure 4Aiii, single replicate values (technical duplicate)) 103.08 % of control and 96.92 % of control and 107.31 % of control and 115.19 % of control and 106.98 % of control and 101.78 % of control and 103.46 % of control and 103.17 % of control. Also, the “Specific BRET (690/540), % of control” value (log[Ligand] -9, Figure 4Aiii, single replicate values (technical duplicate)) was 95.62 % of control and 111.25 % of control and 100.79 % of control and 103.71 % of control and 132.11 % of control. For the same compound, the “Specific BRET (540/450), % of control” value is 137.97 % of control and 140.19 % of control and 93.19 % of control and 74.76 % of control (log[Ligand] -5, Figure 4Biii, single replicate values (technical duplicate)); 128.99 % of control and 129.28 % of control and 107.91 % of control and 104.11 % of control and 75.59 % of control and 66.37 % of control (log[Ligand] -5.5, Figure 4Biii, single replicate values (technical duplicate)); 100.93 % of control and 117.25 % of control and 87.18 % of control and 77.69 % of control and 68.48 % of control and 67.29 % of control (log[Ligand] -6, Figure 4Biii, single replicate values (technical duplicate)); 102.36 % of control and 114.39 % of control and 83.39 % of control and 83.86 % of control and 94.27 % of control and 96.38 % of control (log[Ligand] -6.5, Figure 4Biii, single replicate values (technical duplicate)); 116.11 % of control and 107.80 % of control and 95.73 % of control and 91.61 % of control and 84.18 % of control and 85.41 % of control (log[Ligand] -7, Figure 4Biii, single replicate values (technical duplicate)); 110.67 % of control and 105.51 % of control and 101.90 % of control and 100.00 % of control and 64.33 % of control and 77.86 % of control (log[Ligand] -8, Figure 4Biii, single replicate values (technical duplicate)). In addition, the “Specific BRET (540/450), % of control” value (log[Ligand] -9, Figure 4Biii, single replicate values (technical duplicate)) was 110.95 % of control and 125.84 % of control and 113.61 % of control and 148.10 % of control and 60.11 % of control and 65.92 % of control. Besides, the “'bottom' of the IC50 curve, DISCo-BRET SulfoCy5/NBD” value (percentage of binding obtained in the absence of competing ligand, 100 nM TUG-2591 and […] TUG-2597) is reported as 26%. Besides, the “pKi DISCo-BRET SulfoCy5/NBD” value (using Kd TUG-2591 57 nM) came out at 6.6±0.07.

As to `CC/C=C\C/C=C\C/C=C\CCCCCCCC(=O)O` [aLA, α-linolenic acid, reference compound], the “pIC50 DISCo-BRET NBD/Nluc” value under setting [1] was ~ 2.9. The “pIC50 DISCo-BRET SulfoCy5/NBD” value under setting [1] is reported as ~ 3.7. Moreover, the “Specific BRET (540/450), % of control” value (log[Ligand] -3.5, Figure 4Bi, single replicate values (technical duplicate)) is 354.98 % of control and 422.66 % of control and 352.08 % of control and 364.14 % of control and 218.20 % of control and 190.12 % of control and 192.71 % of control and 171.70 % of control; the “Specific BRET (540/450), % of control” value (log[Ligand] -4, Figure 4Bi, single replicate values (technical duplicate)) was 179.15 % of control and 260.42 % of control and 251.25 % of control and 232.54 % of control and 120.10 % of control and 104.16 % of control and 145.44 % of control and 143.73 % of control; the “Specific BRET (540/450), % of control” value (log[Ligand] -4.5, Figure 4Bi, single replicate values (technical duplicate)) was 155.59 % of control and 151.36 % of control and 193.87 % of control and 183.26 % of control and 24.44 % of control and 77.47 % of control and 109.72 % of control and 124.03 % of control; the “Specific BRET (540/450), % of control” value (log[Ligand] -5, Figure 4Bi, single replicate values (technical duplicate)) was 123.87 % of control and 127.19 % of control and 164.97 % of control and 169.96 % of control and 63.60 % of control and 42.81 % of control and 103.55 % of control and 110.64 % of control; the “Specific BRET (540/450), % of control” value (log[Ligand] -5.5, Figure 4Bi, single replicate values (technical duplicate)) was 115.11 % of control and 123.26 % of control and 154.99 % of control and 156.24 % of control and 24.44 % of control and 64.99 % of control and 93.96 % of control and 98.42 % of control; the “Specific BRET (540/450), % of control” value (log[Ligand] -6, Figure 4Bi, single replicate values (technical duplicate)) was 117.22 % of control and 113.60 % of control and 140.23 % of control and 145.01 % of control and 35.88 % of control and 33.45 % of control and 94.09 % of control and 108.27 % of control. Further, the “Specific BRET (540/450), % of control” value (log[Ligand] -7, Figure 4Bi, single replicate values (technical duplicate)) was 110.27 % of control and 80.36 % of control and 117.15 % of control and 115.28 % of control and 96.88 % of control and 77.82 % of control and 92.78 % of control and 101.71 % of control. The “Specific BRET (690/540), % of control” value is, setting by setting: (log[Ligand] -4.5, technical duplicate) 81.41 % of control and 79.89 % of control and 110.36 % of control and 102.58 % of control and 55.19 % of control and 61.69 % of control and 79.93 % of control; (log[Ligand] -5, technical duplicate) 89.67 % of control and 83.59 % of control and 104.96 % of control and 115.39 % of control and 81.83 % of control and 84.93 % of control and 95.09 % of control and 92.80 % of control; (log[Ligand] -5.5, technical duplicate) 91.96 % of control and 95.98 % of control and 110.87 % of control and 118.78 % of control and 93.29 % of control and 101.24 % of control and 95.01 % of control and 95.16 % of control; (log[Ligand] -7, technical duplicate) 92.39 % of control and 86.20 % of control and 111.87 % of control and 113.13 % of control and 97.73 % of control and 97.01 % of control and 100.19 % of control and 94.25 % of control; (log[ligand] -6, technical duplicate) 86.09 % of control and 86.20 % of control and 111.62 % of control and 112.25 % of control and 100.93 % of control and 101.65 % of control and 99.73 % of control and 101.33 % of control.
